ChEMBL document CHEMBL6083203, “Discovery and optimisation of pyrazolo[1,5-a]pyrimidines as aryl hydrocarbon receptor antagonists” (RSC Med Chem, 2024)

What follows are compounds tested against T1, Aryl hydrocarbon receptor (Homo sapiens, UniProt P35869). Conditions: Huh-7, human, 20 h, read-out: Activity.
T1 sequence (P35869 whole entry): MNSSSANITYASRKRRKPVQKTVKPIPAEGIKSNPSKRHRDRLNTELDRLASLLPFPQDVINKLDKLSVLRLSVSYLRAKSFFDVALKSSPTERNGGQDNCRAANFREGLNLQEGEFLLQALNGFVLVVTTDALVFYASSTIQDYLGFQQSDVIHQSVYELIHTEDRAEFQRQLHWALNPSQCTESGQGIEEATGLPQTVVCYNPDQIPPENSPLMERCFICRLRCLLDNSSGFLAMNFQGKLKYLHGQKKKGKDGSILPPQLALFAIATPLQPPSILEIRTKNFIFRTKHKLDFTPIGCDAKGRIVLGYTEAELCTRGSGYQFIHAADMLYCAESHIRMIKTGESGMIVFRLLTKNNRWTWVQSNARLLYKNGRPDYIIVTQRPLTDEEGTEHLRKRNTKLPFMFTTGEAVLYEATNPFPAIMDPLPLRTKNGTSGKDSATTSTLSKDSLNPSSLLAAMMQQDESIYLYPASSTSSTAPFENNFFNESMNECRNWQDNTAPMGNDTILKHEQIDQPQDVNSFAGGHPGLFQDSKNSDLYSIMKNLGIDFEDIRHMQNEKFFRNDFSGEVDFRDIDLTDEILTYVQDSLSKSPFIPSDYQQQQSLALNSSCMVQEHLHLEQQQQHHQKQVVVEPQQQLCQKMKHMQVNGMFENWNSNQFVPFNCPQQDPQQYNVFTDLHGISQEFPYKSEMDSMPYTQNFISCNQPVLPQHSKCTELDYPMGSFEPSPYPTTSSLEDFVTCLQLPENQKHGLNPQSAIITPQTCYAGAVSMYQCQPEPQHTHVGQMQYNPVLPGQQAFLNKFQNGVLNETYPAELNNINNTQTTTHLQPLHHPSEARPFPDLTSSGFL
Description: Antagonist activity at AHR receptor in human Huh-7 cells transfected with CYP1A1 regulated luciferase reporter gene assessed as inhibition of receptor activation at 25 uM incubated for 20 hrs by dual luciferase assay relative to control
With `NC(=O)C1CN(C(=O)c2cc(-c3ccc(Cl)cc3)nn2-c2ccccc2)c2ccccc2O1` (configuration not stated) the inhibition at 25 µM was 28%.
In the case of `C=CCn1c(SC(C)C(=O)NC(N)=O)nnc1-c1cc2c(s1)CCC(C(C)(C)C)C2` (configuration not stated), the inhibition at 25 µM is reported as 1.4%.

Each compound was assayed against T2, Aryl hydrocarbon receptor (Mus musculus, UniProt P30561) (assay: Antagonist activity at AhR receptor in TCDD-stimulated mouse CD34-positive cell assessed as decrease in CYP1B1 mRNA expression). Conditions: not given.
T2 sequence (P30561 whole entry): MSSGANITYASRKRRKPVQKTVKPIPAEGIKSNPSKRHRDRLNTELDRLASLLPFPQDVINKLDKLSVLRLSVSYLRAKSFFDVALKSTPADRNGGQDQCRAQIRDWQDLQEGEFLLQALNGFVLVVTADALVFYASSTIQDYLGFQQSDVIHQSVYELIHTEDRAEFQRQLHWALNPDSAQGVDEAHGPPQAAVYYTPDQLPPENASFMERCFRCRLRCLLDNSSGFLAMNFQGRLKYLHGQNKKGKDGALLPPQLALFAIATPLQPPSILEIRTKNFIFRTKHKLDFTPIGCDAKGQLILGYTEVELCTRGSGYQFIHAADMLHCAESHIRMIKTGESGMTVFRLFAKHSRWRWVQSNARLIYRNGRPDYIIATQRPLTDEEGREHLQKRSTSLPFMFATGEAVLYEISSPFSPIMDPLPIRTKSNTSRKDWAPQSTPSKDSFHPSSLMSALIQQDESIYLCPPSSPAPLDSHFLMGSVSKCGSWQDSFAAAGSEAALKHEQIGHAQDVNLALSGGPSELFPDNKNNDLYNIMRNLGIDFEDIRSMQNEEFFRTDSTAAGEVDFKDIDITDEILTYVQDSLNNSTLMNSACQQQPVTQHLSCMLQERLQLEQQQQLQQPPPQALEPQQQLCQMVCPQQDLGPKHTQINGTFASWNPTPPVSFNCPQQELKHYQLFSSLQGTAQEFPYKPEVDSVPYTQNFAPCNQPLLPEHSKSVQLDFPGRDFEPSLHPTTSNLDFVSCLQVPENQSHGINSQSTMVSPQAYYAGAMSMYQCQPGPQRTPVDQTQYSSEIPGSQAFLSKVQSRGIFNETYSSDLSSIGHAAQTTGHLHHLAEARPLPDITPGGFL
For `CC(C)n1cnc2c(NCCc3ccc(O)cc3)nc(-c3csc4ccccc34)nc21`, the IC50 was 127 nM.

What follows are compounds tested against T1, Aryl hydrocarbon receptor. Conditions: not given.
With `c1ccc(-c2cc(Nc3cnc[nH]3)n3ncc(-c4ccccc4)c3n2)cc1` the IC50 was 121 nM.
In the case of `COc1ccccc1-c1cnn2c(NCCOCCO)cc(-c3ccccc3)nc12`, the IC50 is reported as 320 nM.
`CC(C)(C)c1cccc(-c2cnn3c(NCCOCCO)cc(-c4ccccc4)nc23)c1` was tested, and the IC50 was 29500 nM.
`OCCOCCNc1cc(-c2ccccc2)nc2c(-c3ccccc3OC(F)(F)F)cnn12` showed an IC50 of 396 nM.
Work on `Cc1ccc(-c2cc(NCCOCCO)n3ncc(-c4ccccc4)c3n2)cc1` yielded an IC50 of 189 nM.
With `COC(=O)c1ccccc1-c1cnn2c(NCCOCCO)cc(-c3ccccc3)nc12` the IC50 was 359 nM.
Compound `CS(=O)(=O)Nc1ccccc1-c1cnn2c(NCCOCCO)cc(-c3ccccc3)nc12` has an IC50 of 654 nM.

Biological target: T1, Aryl hydrocarbon receptor
Conditions: Huh-7, human, 20 h, read-out: Activity
Remark: another data set of the same source
Description: Antagonist activity at AHR receptor in human Huh-7 cells transfected with CYP1A1 regulated luciferase reporter gene assessed as inhibition of TCDD-induced receptor activation at 25 uM incubated for 20 hrs by dual luciferase assay relative to control
`NC(=O)C1CN(C(=O)c2cc(-c3ccc(Cl)cc3)nn2-c2ccccc2)c2ccccc2O1` (configuration not stated) showed an inhibition at 25 µM of 23.6%.
In the case of `C=CCn1c(SC(C)C(=O)NC(N)=O)nnc1-c1cc2c(s1)CCC(C(C)(C)C)C2` (configuration not stated), the inhibition at 25 µM is reported as 21%.
